Values of other authors in patent US6642378B1, “Process for the synthesis of beta-lactam derivatives” (Antibioticos S.p.A., priority 1999, dated 2003).
Read-outs that look alike come from different tables or passages of the source.

Columns and labels:
[1] = data from MSDS (Material Safety Data Sheet)—OHS
[2] = oral, data from MSDS (Material Safety Data Sheet)—OHS

COC(C)=O [Methyl acetate]
Flash point [1]: −10.0 °C | oral DL50 rat (rat; in vivo, po): 5480 mg/kg

CC(C)=O [Acetone]
Flash point [1]: −18.0 °C | oral DL50 rat (rat; [2]): 5800 mg/kg

CCOC(=O)OCC [Diethylcarbonate]
Flash point [1]: 33.0 °C | oral DL50 rat (rat; in vivo, po): 15000 mg/kg

C1CCOC1 [Tetrahydrofuran]
Flash point [1]: −17.2 °C | oral DL50 rat (rat; [2]): 2816 mg/kg

CCOC(C)=O [Ethyl acetate]
Flash point [1]: −4.0 °C | oral DL50 rat (rat; [2]): 5620 mg/kg

COC(=O)OC [Dimethylcarbonate]
Flash point [1]: 21.7 °C | oral DL50 rat (rat; in vivo, po): 13000 mg/kg
